Marks after values point to notes of the source that are not given here.
Columns and labels:
[1] = system: inflammatory cytokines (TNFα, IL1β, IL6, IFNγ); assay: DSS acute enteritis model (Example 6): RT-PCR of inflammatory cytokines in intestinal mucosa; assay type: in vivo, BALB/c mice; conditions: polyphosphate 5 μg/head or TAC 60 μg/head oral daily day 0-7, day 8
Procedure: (§1) Dextran sodium sulfate (DSS) (MP-BioMedicals; 160110) was dissolved in distilled water to prepare 2% DSS solution. Chemical-induced enteritis was triggered in BALB/c mice (Charles River, Japan) by administering the solution as drinking water ad libitum for 5 days, and acute enteritis was developed while distilled water was supplied as drinking water ad libitum from day 6 to day 8 (necropsy day). Each polyphosphate (PPA-Na, PPA-Ca, PPA-Zn, or PPA-Mg; 5 μg/head each) or tacrolimus (TAC; 60 μg/head; Sigma CORPORATION, PHR1809) was orally administered daily from day 0 to day 7, and on day 8, the mice were subjected to various tests.
(§2) The colon was cut and open in half using scissors, and the intestinal mucosa was detached with a slide glass. Intestinal mucosal tissue was soaked in 0.5 ml TRIzol (ThermoFisher Scientific K.K.), frozen in liquid nitrogen, and stored at −80° C. After thawing each stored sample at room temperature, RNA was recovered according to the procedure instructed by ThermoFisher Scientific K.K. The recovered total RNA was purified using an RNeasy Mini kit (Qiagen) and reverse-transcribed using a High-Capacity cDNA Reverse Transcription Kit (ThermoFisher Scientific K.K.). A PCR reaction was performed, using the recovered cDNA as a template, with EagleTaq Universal Master Mix with ROX (Roche). The primers (TaqMan Gene Expression Assays; ThermoFisher Scientific K.K.) used in the reaction are as follows. IL1β: Mm01336189, TNFα: Mm00443258, IL6: Mn00446190, IFNγ: Mm99999071. Changes in each gene expression level were standardized based on the expression level of Eukaryotic 18S rRNA Endogenous Control (ThermoFisher Scientific K.K.). Spectrum data was acquired using the Applied Biosystems 7300 Real Time PCR system.

[2] = system: inflammatory cytokines (IL1β, TNFα, IL6, IFNγ, IL17A); assay: DSS acute enteritis model (Example 10, after long-term storage): RT-PCR of cytokine mRNA; assay type: in vivo, mice; conditions: day 12, PPA-Zn initial (not stored) or TAC
Procedure: as §2
(§3) Zinc polyphosphate Test 15-2 was stored under a condition at 60° C. and 75% RH for 8 weeks according to Example 2. The zinc polyphosphate Test 15-2 after storage was used to evaluate efficacy in the DSS acute enteritis model, measure the intestinal length, perform RT-PCR, and evaluate the histopathological severity according to Example 6 (Table 7, FIG. 9).
(§4) DDS acute enteritis model mice were generated according to Example 6 and subjected to various tests on day 12 (FIG. 9).
(§5) The mRNA expression levels of various cytokines (IL1β, TNFα, IL6, IFNγ, and IL17A) were analyzed according to Example 6, and the improvement rate was calculated (Table 7). The primers (TaqMan Gene Expression Assays; ThermoFisher Scientific K.K.) used in the reaction are as follows. IL1β: Mm01336189, TNFα: Mm00443258, IL6: Mn00446190, IFNγ: Mm99999071, IL17A: Mm00439618.

[3] = system: DSS acute enteritis model; assay: DSS acute enteritis model (Example 9, dose examination): intestinal length and histopathological evaluation; assay type: in vivo, BALB/c mice; conditions: DSS mice; 20 μg/head oral daily day 5-11; day 12
Procedure: (§6) Mice were euthanized by cervical dislocation under isoflurane anesthesia, and the entire length of the colon was excised after opening the abdomen with scissors. The length of the excised colon was measured on a scale (FIG. 5).
(§7) Each colon tissue was Swiss rolled (Moolenbeek C, Lab Anim. 1981) and fixed in 10% formalin according to the procedure instructed by Moolenbeek C et al. The tissue was paraffin-embedded, thinly sliced to 4 μm, and stained with hematoxylin & eosin as a prepared specimen. The tissue was pathologically evaluated by inflammatory tissue scoring (Berg DJ, J Clin Invest, 1996) as described by Berg et al. The improvement rate (%) was calculated according to the following formula (Table 4).
(§8) Dextran sodium sulfate (DSS) (MP-BioMedicals; 160110) was dissolved in distilled water to prepare 2% DSS solution. Chemical-induced enteritis was triggered in BALB/c mice (Charles River, Japan) by administering the solution as drinking water ad libitum for 5 days, and acute enteritis was developed while distilled water was supplied as drinking water ad libitum from day 5 to day 12 (necropsy day). Zinc polyphosphate PPA-Zn (1, 5, 20, or 50 μg/head each) or tacrolimus (20 μg/head) was orally administered daily from day 5 to day 11, and on day 12, the mice were subjected to various tests (FIG. 8).
The intestinal length after zinc polyphosphate treatment was measured according to Example 6, and the improvement rate was calculated (FIG. 8).
Each tissue was pathologically evaluated by inflammatory tissue scoring according to Example 6, and the improvement rate was calculated (Table 6).

[4] = system: DSS acute enteritis model; assay: DSS acute enteritis model (Example 10, after long-term storage): intestinal length and histopathological evaluation; assay type: in vivo; conditions: DSS mice, day 12; PPA-Zn initial (not stored) or TAC
Procedure: as §6, §7, §3, §4
The intestinal length after zinc polyphosphate treatment was measured according to Example 6, and the improvement rate was calculated (FIG. 9).
Each tissue was pathologically evaluated by inflammatory tissue scoring according to Example 6, and the improvement rate was calculated (Table 7).

[5] = system: inflammatory cytokines (IL1β, TNFα, IL6, IFNγ, IL17A); assay: DSS acute enteritis model (Example 9, dose examination): RT-PCR of cytokine mRNA; assay type: in vivo, BALB/c mice; conditions: 20 μg/head oral daily day 5-11, day 12
Procedure: as §2, §8
as §5, with “6).” for “7).”

[6] = system: DSS acute enteritis model; assay: DSS acute enteritis model (Example 6): intestinal length and histopathological evaluation; assay type: in vivo, BALB/c mice; conditions: DSS mice; polyphosphate 5 μg/head or TAC 60 μg/head oral daily day 0-7; day 8
Procedure: as §1, §6, §7

[7] = relative value when control is set to 1

## C=CC[C@@H]1/C=C(\C)C[C@H](C)C[C@H](OC)[C@H]2O[C@@](O)(C(=O)C(=O)N3CCCC[C@H]3C(=O)O[C@H](/C(C)=C/[C@@H]3CC[C@@H](O)[C@H](OC)C3)[C@H](C)[C@@H](O)CC1=O)[C@H](C)C[C@@H]2OC [TAC, tacrolimus]
[1]; DSS mice
  Improvement rate IFNγ: 98%
  Improvement rate IL1β: 88% *
  Improvement rate IL6: 94%
  Improvement rate TNFα: 85% *
[1]; [7]
  Changes in inflammatory cytokines IFNγ: 2 ± 0.9
  Changes in inflammatory cytokines IL1β: 6.7 ± 6.3
  Changes in inflammatory cytokines IL6: 5.1 ± 2.3
  Changes in inflammatory cytokines TNFα: 2.2 ± 0.5
[2]; DSS mice
  Improvement rate IFNγ: 79%
  Improvement rate IL1β: 44%
  Improvement rate IL6: 76%
  Improvement rate IL17A: 80%
  Improvement rate TNFα: 50%
[2]; [7]
  Changes in inflammatory cytokines IFNγ: 12.1 ± 27.7
  Changes in inflammatory cytokines IL1β: 201.1 ± 211.7
  Changes in inflammatory cytokines IL6: 49.5 ± 55.5
  Changes in inflammatory cytokines IL17A: 192.9 ± 321.9
  Changes in inflammatory cytokines TNFα: 8.2 ± 5
[3]
  Improvement rate Histological severity: 27%
  Improvement rate Intestinal length: 9%
  Macro findings Intestinal length: 99.4 ± 12.6 mm
  Micro findings Histological sovority: 2.4 ± 1.3
[4]
  Improvement rate Histological severity: 42%
  Improvement rate Intestinal length: 12%
  Macro findings Intestinal length: 89 ± 4.5 mm
  Micro findings Histological severity: 2.3 ± 0.5
[5]; DSS mice
  Improvement rate IFNγ: 63%
  Improvement rate IL1β: 31%
  Improvement rate IL6: 73%
  Improvement rate IL17A: 66%
  Improvement rate TNFα: 39%
[5]; [7]
  Changes in inflammatory cytokines IFNγ: 1.5 ± 0.8
  Changes in inflammatory cytokines IL1β: 85.9 ± 117.1
  Changes in inflammatory cytokines IL6: 27.2 ± 52.4
  Changes in inflammatory cytokines IL17A: 53.9 ± 77
  Changes in inflammatory cytokines TNFα: 5.4 ± 4.5
[6]
  Improvement rate Histological severity: 40% *
  Improvement rate Intestinal length: 43% *
  Macro findings Intestinal length: 109.8 ± 6.5 mm
  Micro findings Histological severity: 1.8 ± 0.4

Source: patent US20260166076A1, “PHARMACEUTICAL COMPOSITION CONTAINING ZINC POLYPHOSPHATE” (Kamui Pharma, Inc., priority 2022, published 2026)
